In patent US12486401B2, “‘Smart’ hydrogel for the radiosensitization and sustained delivery of therapeutics triggered by irradiation” (The Trustees of the University of Pennsylvania, priority 2019, dated 2025):

Key:
U251 DR5-Luc cells = test: Cell based high throughput death receptor screen (DR5-Luc reporter bioluminescence); settings: compound at 100 nM, 24 h; positive control Tunicamycin 100 nM
Method: High throughput screening (HTS) was performed by the HTS core at the University of Pennsylvania. U251 DR5-Luc cells were plated at 2.0×10^3 cells/well across ten 384 well plates. Plates were then incubated in a humidified environment at 37° C. and 5% CO2 for twenty-four hours. Compound from the Selleckchem Bioactive Compound Library I was added to each well at 100 nM (approximately 3200 compounds). Tunicamycin (100 nM) and DMSO (0.1% v/v) served a positive and negative plate controls. Brite-Lite (PerkinElmer, Waltham, MA) reagent was added all plates twenty-four hours following the addition of compound, and plates were assayed on Envision Xcite (PerkinElmer) plate reader. The mean (μ) and standard deviation (σ) for each plate was used to transform total flux for each compound (xi) into z-scores using the formula z=(xi−μ/σ). Calculation of Z-prime for this screening assay was based upon the formula set forth by Zhang et al utilizing Tunicamycin and DMSO as a positive and negative controls respectively. Positive hits were identified as compounds that produced z-prime values greater than Tunicamycin. Reporter activity was validated following compound incubation and bioluminescence imaging on the IVIS spectrum (PerkinElmer).

NS039 = test: Compound dilution studies and cell viability (Cell Titer Glo); type: cell-based, human; settings: for IC50: NS039, 72 h
Method: (§1) Cells were plated at density of 7.5-1.0×10^4 cells/well in 96 well plates using their respective media. Plates were then incubated in a humidified environment at 37° C. and 5% CO2 for twenty-four hours. An eleven-point dilution series of positive hits from our HTS screen was added to each plate. Cells treated with 0.1% DMSO served as a vehicle control. Plates were incubated with compound for seventy-two hours at 37° C. and 5% CO2, followed by addition of Cell Titer Glo® (Promega). Bio-luminescent readings were obtained using a Synergy HT luminometer (BioTek, Winooski, VT). Raw bio-luminescent values were normalized to their vehicle treated controls, and then fit to a modified Hill Equation using OriginPro 8 (OriginLab, Northampton, MA) in order to calculate IC50 values. All dilution series experiments were performed as biological triplicates.

T4213 = test: as above; type: cell-based; settings: for IC50: T4213, 72 h
Method: as §1

CHOP and DR5 = test: Western blot analysis of CHOP and DR5; type: cell-based
Method: Western blot analysis was performed using standard techniques as understood in the art, including those described at least by S. Sheikh et. al., Mol. Cancer Res. 2019, 17 (5), 1102-1114.

T4213 and NS039 cells = test: Sphere formation assay; type: cell-based; settings: 1.0 μM
Method: T4213 and NS039 cells were plated at 2000 cells/well in six well plates in the presence of 0.1% DMSO or 1.0 μM Quisinostat in biological triplicate for twelve days. On day twelve, individual wells were imaged on a Lionheart Fx microscope at 4× magnification following addition of NucBlue™ (Hoechst 33342, Invitrogen). Circular blue objects greater than 50 μm in diameter and less than […] were counted as neurospheres. Differences in sphere formation between cells and treatments were assessed using a one-way ANOVA followed by post-hoc Tukey's test in GraphPad Prism 8. P-values less than 0.05 were considered significant.

[1] = system: Patient-derived glioblastoma organoids (GBOs); test: Brain tumor organoids, compound incubation, viability and immunofluorescence; type: cell-based, human; settings: 1.0 μM
Method: Glioblastoma organoids (GBOs) were generated from primary brain tumor as previously described.3 Briefly, primary brain tumor specimens were minced into approximately 1 mm pieces following clinical confirmation of pathologic diagnosis and incubated in GBO medium containing 50% DMEM:F12 (Thermo Fisher Scientific), 50% Neurobasal (Thermo Fisher Scientific), 1× GlutaMax (Thermo Fisher Scientific), 1× NEAAs (Thermo Fisher Scientific), 1× PenStrep (Thermo Fisher Scientific), 1× N2 supplement (Thermo Fisher Scientific), 1× B27 w/o vitamin A supplement (Thermo Fisher Scientific), 1× 2-mercaptoethanol (Thermo Fisher Scientific), and […] human insulin (Sigma) per well and placed on an orbital shaker rotating at 120 rpm within a 37° C., 5% CO2, and 90% humidity sterile incubator. Organoids would generally form 2-4 weeks following initial culturing. Organoids were then incubated in GBO containing media containing either DMSO (0.1%) or 1.0 μM quisinostat with media changes every two days for seven days total. Post-treatment images were taken on brightfield microscope and samples were subsequently fixed in 4% paraformaldehyde×30 minutes for immunofluorescence analysis.
Serial tissue sections (20 μm) were sliced using a cryostat (Leica, CM3050S), and melted onto charged slides (Thermo Fisher Scientific). Slides were dried at room temperature and stored at −20° C. until ready for immunohistology. For immunofluorescence staining, the tissue sections were outlined with a hydrophobic pen (Vector Laboratories) and washed with TBS containing 0.1% Tween-20 (v/v). Non-specific binding was blocked using a solution containing 10% donkey serum (v/v), 0.5% Triton X-100 (v/v), 1% BSA (w/v), 0.1% gelatin (w/v), and 22.52 mg/ml glycine in TBST for 1 hour at room temperature. […]
GBOs were imaged on a Zeiss LSM 710 confocal microscope (Zeiss) using a 20× objective with Zen 2 software (Zeiss). Images were quantified and analyzed using ImageJ software. […]

T4213 orthotopic tumor = test: Orthotopic tumor implantation and treatment with Quisinostat; type: in vivo, athymic nude mice
Source text: T4213 cells were stably modified using a lentiviral vector containing GFP and Luciferase (Biosettia, San Diego, CA). Cells were resuspended in serum free media, and then 3.0×10^5 cells were stereotactically injected into the right striatum of five-week female athymic nude mice (Charles River Labs). Tumor bioluminescence was quantified on the IVIS spectrum (PerkinElmer, Hopkinton, MA) following intraperitoneal administration of D-Luciferin (Goldbio, St Louis MO) two days following cell implantation. In a separate experiment, mice underwent serial bioluminescent imaging following orthotopic T4213 implantation. Mice were assigned to different treatment groups such that the total flux (photons/s) was equivalent between groups (6.4×10^6 photons/s). Treatment was initiated immediately following bioluminescent imaging, and consisted of once daily intraperitoneal administration of 2-Hydroxypropyl-β-cyclodextrin (vehicle, Cayman Chemical, Ann Arbor MI) or 10 mg/kg Quisinostat (Cayman Chemical) for a total of eight doses (FIG. 5A). […] Bioluminescent imaging was repeated seventy-two hours after the last treatment was administered. […] Serial bioluminescence was assessed using a one-way repeated measures ANOVA followed by a post-hoc Tukey test. Post-treatment total flux was background corrected, and the percent change in total flux was analyzed using a Mann-Whitney U test. […]

[2] = Cargo loading efficiency of Se-PCPP hydrogel (UV-Vis / ICP-OES); type: physicochemical; settings: UV-vis spectroscopy
Method: Se-PCPP hydrogel: A mixture of 1 mL PCPP (4 mg·mL^−1, PBS) and 10.3 mg Na2HPO4 were mixed together and pH was adjusted to 7.4 by addition of HCl (1 M). Next, 1.4 μL of selenocystamine dihydrochloride (110 mg·mL^−1, PBS) were added to the mixture and vortexed for 30 seconds. The mixture was dropping into 10 mL of a CaCl2 (8.8%, DI H2O) and left to react under vigorous stirring for 20 minutes at room temperature. Finally, the solution was transferred to conical tubes and centrifuged at 2 k rpm for 8 min. The supernatant was discarded, and the pellet was re-suspended in DI water. After repeating this process three times, the Se-PCPP solution was re-suspended in DI water, vortexed at 14 k rpm and stored at 4° C. The final concentration of […] in the sample was determined using ICP-OES performed on a Spectro Genesis ICP.
Cargo loaded Se-PCPP hydrogel: For the cargo loaded Se-PCPP hydrogel, the PCPP (4 mg/mL, PBS) solution was mixed with the desired amount of cargo (solutions of doxorubicin, FITC-BSA or quisinostat at 1 mg/mL) and 10.3 mg Na2HPO4. The total volume was completed to 2 mL with PBS, pH was adjusted to 7.4 by addition of HCl (1 M) and incubated for 10 minutes before cross-linking with selenocystamine dihydrochloride as described above. The final drug concentration in the sample were determined using UV-Vis spectroscopy by determining the loading efficiency (LE), calculated as follows: % LE=([stock drug]−[non-loaded drug]/[stock drug])*100.

[3] = Hydrogel degradation and cargo release after X-ray irradiation; type: physicochemical
Method: X-ray irradiation The radiation dose delivered to the sample is quantified in gray (Gy) with the relation of 1 Gy=1 J/kg. The X-ray irradiation was performed on an X-RAD 320ix irradiator (PXi, North Branford, CT) operated at 320 kV, 12.5 mA, focal spot of 8 mm^2 and with an aluminum filter of 2 mm delivering a dosage rate of 2.65 Gy/minute. In brief, the Se-PCPP hydrogel was sampled into 1 mL tube and placed in the irradiator chamber for the desired time depending onto the X-ray dose to be delivered.
Se-PCPP hydrogel ([Au]=0.2 mg/mL) was suspended into 1 mL of freshly prepared PBS/10 FBS in micro-centrifuge tubes and centrifuged at 4 k rpm for 8 minutes. Samples were irradiated with the desired X-ray dose and incubated at 37° C. for the overall experiment time. At the desired time point, samples were vortexed, centrifuged at 4000 rpm for 8 minutes and the supernatant was gently collected for quantification of the released cargo by ICP-OES or UV-vis spectroscopy. 1 mL of freshly prepared incubation medium was rapidly added to each sample, all were incubated at 37° C. until the next time point.

Row | Compound | bioluminescent signal in cell-based death receptor assay (U251 DR5-Luc cells) | IC50 (NS039) | IC50 (T4213) | loading efficiency in Se-PCPP hydrogel [2] | further results
1 | Cn1cc(CNCC2CCN(c3ncc(C(=O)NO)cn3)CC2)c2ccccc21 [Quisinostat] | greater than our positive control Tunicamycin | single digit nanomolar | single digit nanomolar | 81% | therapeutic window (ratio of IC50s between NHA and NS039) (NS039; normal human astrocytes vs NS039): favorable therapeutic window; therapeutic window (ratio of IC50s between NHA and T4213) (T4213; normal human astrocytes vs T4213): favorable therapeutic window; CHOP dependent DR5 expression (CHOP and DR5): at nanomolar concentrations; cell morphology, sphere formation and integrity (T4213 and NS039 cells; Hoechst staining): shrunken and fragmented cell morphology; neurosphere formation (T4213 and NS039 cells; twelve days, control 120-130 neurospheres per well, p<0.05): 4-27 neurospheres per well; Caspase staining ([1]; five distinct GBO lines): increased; Ki67 staining ([1]; five distinct GBO lines): decreased; organoid size ([1]; seven days): noticeably shrink; tumor bioluminescence (T4213 orthotopic tumor; 10 mg/kg once daily intraperitoneal with breaks, seventy-two hours after last treatment): significant reduction; mouse body weight (T4213 orthotopic tumor; systemic administration): reduction of mouse body weight
2 | O=C(/C=C/c1ccc(CN(CCO)CCc2c[nH]c3ccccc23)cc1)NO [Dacinostat] | greater than our positive control Tunicamycin | – | – | – | –
3 | COc1cccc2c1C(=O)c1c(O)c3c(c(O)c1C2=O)C[C@@](O)(C(=O)CO)C[C@@H]3O[C@H]1C[C@H](N)[C@H](O)[C@H](C)O1 [doxorubicin] | – | – | – | 74% | –
4 | CCS(=O)(=O)Nc1ccc(Oc2ccc(F)cc2F)c(-c2cn(C)c(=O)c3[nH]ccc23)c1 [ABBV-075] | greater than our positive control Tunicamycin | – | – | – | –
5 | FITC-BSA | – | – | – | 91% | delivery profile from Se-PCPP hydrogel [3]: slower than both quisinostat and doxorubicin
6 | COc1ccc(-c2nc(N3CCOCC3)c3sc(CN(C)c4ncc(C(=O)NO)cn4)cc3n2)cn1 [CUDC-907] | greater than our positive control Tunicamycin | single digit nanomolar | single digit nanomolar | – | –
